The source of these data is patent US7125662B2, “Method of identifying putative antibiotic resistance genes” (priority 2000, dated 2006).

In brackets after ≈: the same amount, converted by molar mass.

Test [1] deals with DH5α-E/pAAC(6′)-Iaa. Briefly: MIC, transgenic host expressing AAC(6′)-Iaa. As to conditions: for MIC: Escherichia coli, read-out: Minimum Inhibitory Concentration; for resistance conferred by plasmid pAAC(6′)-Iaa: transformed into E. coli strain DH5α-E. The class given is cell-based, E. coli. The procedure:
(§1) The putative AAC(6′) aminogylcoside N6′-acetyltransferase gene from Salmonella enteritidis serovar typhimurium strain LT2, designated AAC(6′)-Iaa, was amplified by PCR and cloned into the expression vector pACSE2 (U.S. patent application Ser. No. 09/640,882 to Hall, filed Aug. 18, 2000, which is hereby incorporated by reference in its entirety). The resulting plasmid was designated pAAC(6′)-Iaa (FIG. 2A). The sequence of the AAC(6′)-Iaa coding region was determined by automated DNA sequencing and was confirmed to be identical to the sequence obtained from the incomplete genome sequence database (FIG. 2B).

For test [2] the following is noted: cited from earlier work; for Minimum Inhibitory Concentration, Clinical Resistance: Table 2, aminoglycosides; for Clin. = the MIC for clinical resistance: Table 1, β-lactams, unit assumed.
Test [3] relates to DH5α-E/pACSE2. As to the kind of experiment: MIC, host with empty expression vector. Conditions: for MIC: Escherichia coli, read-out: Minimum Inhibitory Concentration. In kind it is cell-based, E. coli. The procedure:
as §1

The subject of test [4] is Salmonella enteritidis serovar typhimurium strain LT2. As to the kind of experiment: MIC, native Salmonella strain LT2. The class given is cell-based. Conditions: for MIC: Salmonella enterica, read-out: Minimum Inhibitory Concentration; for sensitivity of the strain to the drug: native strain LT2.
In test [5] the test system is E. coli K12 ampC. As to conditions: gene cloned into a plasmid, effective promoter; cited from earlier work.
Test [6] deals with host expressing Citrobacter freundii ampC gene CMY3b. Briefly: MIC conferred by ampC gene CMY3b cloned into common vector. The class given is cell-based. An excerpt:
(§2) The plasmid-borne ampC genes shown in Table 1 (below) have been cloned into a common vector to ensure that all genes are expressed at the same level. […] That is completely expected because those genes were isolated from clinical samples and identified on the basis of conferring resistance to clinical drugs. ampC genes from two strains of Citrobacter freundii that were isolated in the 1920's, in the pre-antibiotic era, were also cloned into the same vector.

The test system of test [7] is host expressing Citrobacter freundii ampC gene CMY2. As to the kind of experiment: MIC conferred by ampC gene CMY2 cloned into common vector. In kind it is cell-based.
From the text: as §2

For test [8], the system named is host expressing Citrobacter freundii ampC gene Cfre8454. Briefly: MIC conferred by ampC gene Cfre8454 cloned into common vector. The class given is cell-based. Conditions: for Minimum Inhibitory Concentration (MIC): Cfre 8454, gene from organism isolated in the 1920's.
From the text: as §2

The test system of test [9] is host expressing Citrobacter freundii ampC gene LAT3. Briefly: MIC conferred by ampC gene LAT3 cloned into common vector. In kind it is cell-based.
From the text: as §2

In test [10] the test system is host expressing Citrobacter freundii ampC gene LAT2. Briefly: MIC conferred by ampC gene LAT2 cloned into common vector. In kind it is cell-based.
From the text: as §2

Test [11] concerns host expressing Citrobacter freundii ampC gene Cfre6879. Briefly: MIC conferred by ampC gene Cfre6879 cloned into common vector. The class given is cell-based. As to conditions: Cfre 6879, gene from organism isolated in the 1920's.
From the text: as §2

The subject of test [12] is host expressing Citrobacter freundii ampC gene LAT4. As to the kind of experiment: MIC conferred by ampC gene LAT4 cloned into common vector. The class given is cell-based.
From the text: as §2

The test system of test [13] is No Plasmid host. As to the kind of experiment: MIC, host with no plasmid (Table 1). The class given is cell-based. An excerpt: (§3) The plasmid-borne ampC genes shown in Table 1 (below) have been cloned into a common vector to ensure that all genes are expressed at the same level.
Test [14] concerns host expressing Citrobacter freundii ampC gene LAT1. As to the kind of experiment: MIC conferred by ampC gene LAT1 cloned into common vector. The class given is cell-based.
From the text: as §2

The test system of test [15] is plasmid-borne ampC genes CMY-2, CMY-3b, LAT-1, LAT-2, LAT-3, and LAT-4. Briefly: Clinical resistance conferred by plasmid-borne ampC genes as a group. In kind it is cell-based, Citrobacter freundii. Conditions: all of CMY-2, CMY-3b, LAT-1, LAT-2, LAT-3, LAT-4.
From the text: as §3

The subject of test [16] is evolved E. coli ampC gene. Conditions: two or three laboratory-induced mutations; cited from earlier work.
[17] abbreviates: S. enteritidis serovar typhimurium LT2.

In the case of `NCC[C@H](O)C(=O)N[C@@H]1C[C@H](N)[C@@H](O[C@H]2O[C@H](CN)[C@@H](O)[C@H](O)[C@H]2O)[C@H](O)[C@H]1O[C@H]1O[C@H](CO)[C@@H](O)[C@H](N)[C@H]1O` [Amikacin], the MIC in [1] (DH5α-E/pAAC(6′)-Iaa) worked out at 8 µg/mL (≈ 13.7 µM); in [3], 0.25 µg/mL (≈ 0.427 µM); in test [4] (setting [17]), 4 µg/mL (≈ 6.83 µM). For the same compound, in test [1], the “resistance conferred by plasmid pAAC(6′)-Iaa” value is recorded as “not”. Besides, the “Minimum Inhibitory Concentration, Clinical Resistance” value in test [2] was 32 µg/mL. Further, the “sensitivity of the strain to the drug” value in test [4] is listed as “sensitive”.

Take `CC1(C)S[C@@H]2[C@H](NC(=O)[C@H](N)c3ccccc3)C(=O)N2[C@H]1C(=O)O` [Ampicillin]: the clinical resistance conferred result in [5] is “confers clinical resistance”; in test [15], “confer clinical resistance”. For the same compound, the “Minimum Inhibitory Concentration (MIC)” value in [6] amounted to 1024; in [7], 1024; in test [8] it was 2048; in test [9], 1024; in test [10] it was 2048; in test [11], 1024. For the same compound, the “Minimum Inhibitory Concentration (MIC)” value in [12] was 1024; in test [13], 2; in test [14] it was 1024. In [2], the Clin. = the MIC for clinical resistance is 32 µg/mL.

Consider `C[C@H]1[C@H](NC(=O)/C(=N\OC(C)(C)C(=O)O)c2csc(N)n2)C(=O)N1S(=O)(=O)O` [Aztreonam], for which the “Minimum Inhibitory Concentration (MIC)” value is given as 128 in test [6]; 16 in test [7]; 128 in test [8]; 64 in [9]; 64 in test [10]; 256 in test [11]. In addition, the “Minimum Inhibitory Concentration (MIC)” value turned out to be 128 in test [12] and 256 in test [14]. Moreover, in [16], the “resistance conferred after further evolution” value is reported as “confer resistance”.

For `CO/N=C(\C(=O)N[C@@H]1C(=O)N2C(C(=O)O)=C(COC(C)=O)CS[C@H]12)c1csc(N)n1` [Cefotaxime], the “Minimum Inhibitory Concentration (MIC)” value in test [6] is recorded as 64; in test [7], 64; in test [8] it was 128; in [9], 128; in [10], 64; in test [11], 128. The “Minimum Inhibitory Concentration (MIC)” value in [12] came out at 256; in [14] it was 64. Besides, the Clin. = the MIC for clinical resistance in [2] was 64 µg/mL. In [15], the clinical resistance conferred result was “confer clinical resistance”.

As for `CC(C)(O/N=C(\C(=O)N[C@@H]1C(=O)N2C(C(=O)[O-])=C(C[n+]3ccccc3)CS[C@H]12)c1csc(N)n1)C(=O)O` [Ceftazidime], the “Minimum Inhibitory Concentration (MIC)” value is reported as 256 in test [6]; 128 in test [7]; 8 in test [8]; 256 in test [9]; 256 in test [10]; 512 in [11]. The “Minimum Inhibitory Concentration (MIC)” value in [12] amounted to 256; in test [13], 0.25; in [14], 256. Moreover, in [8] (Cfre8454, without any additional mutations), the resistance conferred entry was “does not confer clinical resistance”. Further, in test [16], the “resistance conferred after further evolution” value is recorded as “confer resistance”. The Clin. = the MIC for clinical resistance in [2] was 32 µg/mL. Besides, in test [15], the clinical resistance conferred entry is reported as “confer clinical resistance”.

For `CO/N=C(\C(=O)N[C@@H]1C(=O)N2C(C(=O)O)=C(COC(N)=O)CS[C@H]12)c1ccco1` [Cefuroxime], the figures for the clinical resistance conferred entry in test [5] and in test [15] were “confers clinical resistance” and “confer clinical resistance”, respectively. Moreover, the “Minimum Inhibitory Concentration (MIC)” value in [6] is recorded as 1024; in test [7], 256; in test [8] it was 512; in test [9], 1024; in test [10] it was 256; in test [11] it was 512. Moreover, the figures for the “Minimum Inhibitory Concentration (MIC)” value in [12], in test [13] and in test [14] were 2048, 8 and 2048, respectively. Moreover, in test [2], the Clin. = the MIC for clinical resistance is 32 µg/mL.

`NC[C@H]1O[C@H](O[C@H]2[C@H](O)[C@@H](O[C@H]3O[C@H](CO)[C@@H](O)[C@H](N)[C@H]3O)[C@H](N)C[C@@H]2N)[C@H](O)[C@@H](O)[C@@H]1O` [Kanamycin]: the values for the MIC in test [1] (DH5α-E/pAAC(6′)-Iaa), in test [3] and in test [4] (setting [17]) were 32 µg/mL (≈ 66 µM), 0.125 µg/mL (≈ 0.258 µM) and 4 µg/mL (≈ 8.26 µM), respectively.

On to `CCN1CCN(C(=O)N[C@@H](C(=O)N[C@@H]2C(=O)N3[C@@H]2SC(C)(C)[C@@H]3C(=O)O)c2ccccc2)C(=O)C1=O` [Pipericillin], for which the “Minimum Inhibitory Concentration (MIC)” value in test [6] is listed as 128; in test [7] it was 256; in test [8], 512; in [9], 512; in test [10], 256; in test [11], 512. For the same compound, the results for the “Minimum Inhibitory Concentration (MIC)” value in test [12], in [13] and in test [14] were 512, 2 and 128, respectively. In addition, in test [16], the “resistance conferred after further evolution” value is “confer resistance”. In test [2], the Clin. = the MIC for clinical resistance was 128 µg/mL. For the same compound, in test [15], the clinical resistance conferred entry is given as “confer clinical resistance”.

As to `CO[C@@]1(NC(=O)C(C(=O)O)c2ccsc2)C(=O)N2[C@@H](C(=O)O)C(C)(C)S[C@@H]21` (some centres unmarked) [Temocillin], the “Minimum Inhibitory Concentration (MIC)” value was determined as 32 in test [6]; 32 in [7]; 32 in [8]; 64 in test [9]; 32 in test [10]; 32 in [11]. Besides, the “Minimum Inhibitory Concentration (MIC)” value is 64 in [12], 4 in test [13] and 64 in test [14]. In addition, the “resistance conferred after further evolution” value in [16] was “confer resistance”. Moreover, the Clin. = the MIC for clinical resistance in [2] is 32 µg/mL. Further, the clinical resistance conferred result in [15] is recorded as “confer clinical resistance”.

In the case of `NC[C@H]1O[C@H](O[C@H]2[C@H](O)[C@@H](O[C@H]3O[C@H](CO)[C@@H](O)[C@H](N)[C@H]3O)[C@H](N)C[C@@H]2N)[C@H](N)C[C@@H]1O` [Tobramycin], the MIC turned out to be 16 µg/mL (≈ 34.2 µM) in [1] (DH5α-E/pAAC(6′)-Iaa), 0.25 µg/mL (≈ 0.535 µM) in [3] and 4 µg/mL (≈ 8.56 µM) in [4] (setting [17]). The “resistance conferred by plasmid pAAC(6′)-Iaa” value in [1] is “conferred resistance”. In test [2], the “Minimum Inhibitory Concentration, Clinical Resistance” value is 8 µg/mL. The “sensitivity of the strain to the drug” value in test [4] is “sensitive”.

Take Gentamycin: the “Minimum Inhibitory Concentration” value came to 0.5 µg/mL in test [1] (DH5α-E/pAAC(6′)-Iaa), 0.25 µg/mL in test [3] and 2 µg/mL in [4] (setting [17]). Also, the “resistance conferred by plasmid pAAC(6′)-Iaa” value in test [1] is “not”. For the same compound, in test [2], the “Minimum Inhibitory Concentration, Clinical Resistance” value was 8 µg/mL. The “sensitivity of the strain to the drug” value in test [4] is “sensitive”.
